Tested on: MV-4-11 cells
Assay: Gene expression microarray analysis (Affymetrix PrimeView) and GSEA
Type: cell-based, human
Parameters: RFU PODN (11730768_x_at) / Fold change /veh PODN (11730768_x_at) / RFU LINC00158 (11744669_a_at) / Fold change /veh LINC00158 (11744669_a_at) / RFU DUSP10 (11751237_a_at) / Fold change /veh DUSP10 (11751237_a_at) / RFU ID3 (11757404_x_at) / Fold change /veh ID3 (11757404_x_at) / RFU PLEKHG5 (11737974_s_at) / Fold change /veh PLEKHG5 (11737974_s_at) / RFU LRRC4B (11730491_at) / Fold change /veh LRRC4B (11730491_at) / RFU GIMAP4 (11747438_a_at) / Fold change /veh GIMAP4 (11747438_a_at) / RFU KRT8 (11758183_x_at) / Fold change /veh KRT8 (11758183_x_at) / RFU CNN1 (11734310_a_at) / Fold change /veh CNN1 (11734310_a_at) / RFU VPS37D (11726825_at) / Fold change /veh VPS37D (11726825_at) / RFU C10orf10 (11716522_x_at) / Fold change /veh C10orf10 (11716522_x_at) / RFU KIR2DL2 /// KIR2DL4 /// KIR2DL5A /// KIR2DL5B /// KIR2DS1 /// KIR2DS2 /// KIR2DS3 /// KIR2DS4 /// KIR3DL3 /// KIR3DL3 /// KIR3DS1 (11738374_at) / Fold change /veh KIR2DL2 /// KIR2DL4 /// KIR2DL5A /// KIR2DL5B /// KIR2DS1 /// KIR2DS2 /// KIR2DS3 /// KIR2DS4 /// KIR3DL3 /// KIR3DL3 /// KIR3DS1 (11738374_at) / RFU C1QL1 (11718748_at) / Fold change /veh C1QL1 (11718748_at) / RFU TMPRSS4 (11747572_a_at) / Fold change /veh TMPRSS4 (11747572_a_at) / RFU HAMP (11756126_x_at) / Fold change /veh HAMP (11756126_x_at) / RFU RNFT2 (11725882_a_at) / Fold change /veh RNFT2 (11725882_a_at) / RFU NR4A2 (11747474_a_at) / Fold change /veh NR4A2 (11747474_a_at) / RFU ABCC12 (11746883_a_at) / Fold change /veh ABCC12 (11746883_a_at) / RFU TMEM136 (11760407_x_at) / Fold change /veh TMEM136 (11760407_x_at) / RFU CLDN22 /// WWC2 (11732394_at) / Fold change /veh CLDN22 /// WWC2 (11732394_at) / RFU HLA-DPB1 (11760878_x_at) / Fold change /veh HLA-DPB1 (11760878_x_at) / RFU SPINT1 (11716480_a_at) / Fold change /veh SPINT1 (11716480_a_at) / RFU GAP43 (11754022_s_at) / Fold change /veh GAP43 (11754022_s_at) / RFU A4GNT (11735810_at) / Fold change /veh A4GNT (11735810_at) / RFU PRB3 (11715151_x_at) / Fold change /veh PRB3 (11715151_x_at) / RFU TUBB4B (11761932_at) / Fold change /veh TUBB4B (11761932_at) / RFU CAPN14 (11732068_a_at) / Fold change /veh CAPN14 (11732068_a_at) / RFU TMCC2 (11721928_a_at) / Fold change /veh TMCC2 (11721928_a_at) / RFU IRGQ (11745062_a_at) / Fold change /veh IRGQ (11745062_a_at) / RFU FAM174B (11720279_a_at) / Fold change /veh FAM174B (11720279_a_at) / RFU TMPRSS4 (11748680_a_at) / Fold change /veh TMPRSS4 (11748680_a_at) / RFU FAM212B (11763350_a_at) / Fold change /veh FAM212B (11763350_a_at) / RFU PLEKHG5 (11743358_a_at) / Fold change /veh PLEKHG5 (11743358_a_at) / RFU ZSCAN30 (11745921_a_at) / Fold change /veh ZSCAN30 (11745921_a_at) / RFU CMKLR1 (11741424_a_at) / Fold change /veh CMKLR1 (11741424_a_at) / RFU LOC101060620 /// MAPK8IP1 (11723275_at) / Fold change /veh LOC101060620 /// MAPK8IP1 (11723275_at) / RFU SPTSSB (11747773_x_at) / Fold change /veh SPTSSB (11747773_x_at) / RFU PRSS12 (11739890_at) / Fold change /veh PRSS12 (11739890_at) / RFU BIN1 (11741810_x_at) / Fold change /veh BIN1 (11741810_x_at) / RFU WNT11 (11732464_a_at) / Fold change /veh WNT11 (11732464_a_at) / RFU C10orf10 (11716521_a_at) / Fold change /veh C10orf10 (11716521_a_at) / RFU C5orf56 (11738089_at) / Fold change /veh C5orf56 (11738089_at) / RFU CYB561 (11721691_x_at) / Fold change /veh CYB561 (11721691_x_at) / RFU ANKRD19P (11752326_a_at) / Fold change /veh ANKRD19P (11752326_a_at) / RFU OR2T12 /// OR2T33 /// OR2T8 (11738714_s_at) / Fold change /veh OR2T12 /// OR2T33 /// OR2T8 (11738714_s_at) / RFU VCAN (11748164_a_at) / Fold change /veh VCAN (11748164_a_at) / RFU JSRP1 (11732532_at) / Fold change /veh JSRP1 (11732532_at) / RFU KRTAP10-11 (11738290_x_at) / Fold change /veh KRTAP10-11 (11738290_x_at) / RFU MYO3A (11730013_a_at) / Fold change /veh MYO3A (11730013_a_at) / RFU EBF3 (11725865_a_at) / Fold change /veh EBF3 (11725865_a_at) / RFU CAMK2N1 (11719241_x_at) / Fold change /veh CAMK2N1 (11719241_x_at) / RFU C5orf56 (11738088_a_at) / Fold change /veh C5orf56 (11738088_a_at) / RFU OLFML3 (11715873_a_at) / Fold change /veh OLFML3 (11715873_a_at) / RFU LOC100653217 /// NTM (11731650_a_at) / Fold change /veh LOC100653217 /// NTM (11731650_a_at) / RFU MAPK11 (11762145_a_at) / Fold change /veh MAPK11 (11762145_a_at) / RFU FIZ1 (11724087_x_at) / Fold change /veh FIZ1 (11724087_x_at) / RFU OASL (11726364_x_at) / Fold change /veh OASL (11726364_x_at) / RFU SOX15 (11748057_x_at) / Fold change /veh SOX15 (11748057_x_at) / RFU CD79A (11719716_a_at) / Fold change /veh CD79A (11719716_a_at) / RFU HIST1H1D (11736915_at) / Fold change /veh HIST1H1D (11736915_at) / RFU CASKIN2 (11723855_a_at) / Fold change /veh CASKIN2 (11723855_a_at) / RFU LOC730098 (11760151_x_at) / Fold change /veh LOC730098 (11760151_x_at) / RFU OR4N2 (11742367_at) / Fold change /veh OR4N2 (11742367_at) / RFU PRRT2 (11749266_a_at) / Fold change /veh PRRT2 (11749266_a_at) / RFU SNX32 (11753110_a_at) / Fold change /veh SNX32 (11753110_a_at) / RFU CDHR5 (11726645_a_at) / Fold change /veh CDHR5 (11726645_a_at) / RFU RCAN1 (11760418_a_at) / Fold change /veh RCAN1 (11760418_a_at) / RFU FAM167A (11723789_a_at) / Fold change /veh FAM167A (11723789_a_at) / RFU FAM26E (11764081_at) / Fold change /veh FAM26E (11764081_at) / RFU ISYNA1 (11749810_s_at) / Fold change /veh ISYNA1 (11749810_s_at) / RFU ACY1 (11761880_at) / Fold change /veh ACY1 (11761880_at) / RFU 11764098_at / Fold change /veh 11764098_at / RFU SAMD14 (11745864_x_at) / Fold change /veh SAMD14 (11745864_x_at) / RFU NPB (11741838_a_at) / Fold change /veh NPB (11741838_a_at) / RFU TMPRSS6 (11731388_a_at) / Fold change /veh TMPRSS6 (11731388_a_at) / RFU KRTAP10-2 (11738614_at) / Fold change /veh KRTAP10-2 (11738614_at) / RFU ARHGAP8 /// PRR5-ARHGAP8 (11727945_x_at) / Fold change /veh ARHGAP8 /// PRR5-ARHGAP8 (11727945_x_at) / RFU KRTAP5-7 /// NADSYN1 (11734609_at) / Fold change /veh KRTAP5-7 /// NADSYN1 (11734609_at) / RFU RASL12 (11751679_a_at) / Fold change /veh RASL12 (11751679_a_at) / RFU CDKN2B (11736163_a_at) / Fold change /veh CDKN2B (11736163_a_at) / RFU PRF1 (11729649_at) / Fold change /veh PRF1 (11729649_at) / RFU, ZNF638 /// ZNF638-IT1 / Fold change vs veh, ZNF638 /// ZNF638-IT1 / RFU, PANK3 / Fold change vs veh, PANK3 / RFU, SH3YL1 / Fold change vs veh, SH3YL1 / RFU, ZEB2 / Fold change vs veh, ZEB2 / RFU, NRIP1 / Fold change vs veh, NRIP1 / RFU, PTTG1IP / Fold change vs veh, PTTG1IP / RFU, CAPN2 / Fold change vs veh, CAPN2 / RFU, MED14 / Fold change vs veh, MED14 / RFU, SNORA58 / Fold change vs veh, SNORA58 / RFU, C1orf63 / Fold change vs veh, C1orf63 / RFU, LRRFIP1 / Fold change vs veh, LRRFIP1 / RFU, NDUFAF7 / Fold change vs veh, NDUFAF7 / RFU, SLC12A2 / Fold change vs veh, SLC12A2 / RFU, IBTK / Fold change vs veh, IBTK / RFU, ESF1 / Fold change vs veh, ESF1 / Fold change vs veh, TMEM50B / RFU, TAOK1 / Fold change vs veh, TAOK1 / RFU, ACBD3 / Fold change vs veh, ACBD3 / RFU, TMA16 / Fold change vs veh, TMA16 / RFU, RWDD3 / Fold change vs veh, RWDD3 / RFU, BCAT1 / Fold change vs veh, BCAT1 / RFU, EDEM3 / Fold change vs veh, EDEM3 / RFU, TMEM33 / Fold change vs veh, TMEM33 / RFU, WDR75 / Fold change vs veh, WDR75 / RFU, AHCTF1 / Fold change vs veh, AHCTF1 / RFU, TFRC / Fold change vs veh, TFRC / RFU, ZDHHC17 / Fold change vs veh, ZDHHC17 / RFU, NOM1 / Fold change vs veh, NOM1 / RFU, ARL8B / Fold change vs veh, ARL8B / RFU, ZBTB11 / Fold change vs veh, ZBTB11 / RFU, TAMM41 / Fold change vs veh, TAMM41 / RFU, KIAA1704 /// LOC100996395 / Fold change vs veh, KIAA1704 /// LOC100996395 / RFU, ING1 / Fold change vs veh, ING1 / RFU, TRMT61B / Fold change vs veh, TRMT61B / RFU, FUBP3 / Fold change vs veh, FUBP3 / RFU, TP53 / Fold change vs veh, TP53 / RFU, TNKS2 / Fold change vs veh, TNKS2 / RFU, ZFP14 / Fold change vs veh, ZFP14 / RFU, ACTR2 / Fold change vs veh, ACTR2 / RFU, PPP3R1 / Fold change vs veh, PPP3R1 / RFU, PIK3R1 / Fold change vs veh, PIK3R1 / RFU, HNRNPA1 / Fold change vs veh, HNRNPA1 / RFU, RNF170 / Fold change vs veh, RNF170 / RFU, ZNF28 / Fold change vs veh, ZNF28 / RFU, RNGTT / Fold change vs veh, RNGTT / RFU, OGT / Fold change vs veh, OGT / RFU, BRD1 / Fold change vs veh, BRD1 / RFU, MARS / Fold change vs veh, MARS / RFU, ZNF655 / Fold change vs veh, ZNF655 / RFU, FAHD1 / Fold change vs veh, FAHD1 / RFU, BDP1 / Fold change vs veh, BDP1 / RFU, LRRCC1 / Fold change vs veh, LRRCC1 / RFU, ARID1A / Fold change vs veh, ARID1A / RFU, ZNF146 / Fold change vs veh, ZNF146 / RFU, ZNF330 / Fold change vs veh, ZNF330 / RFU, GPN3 / Fold change vs veh, GPN3 / RFU, C9orf123 / Fold change vs veh, C9orf123 / RFU, N4BP2L2 / Fold change vs veh, N4BP2L2 / RFU, ARFIP1 / Fold change vs veh, ARFIP1 / RFU, FAM179B / Fold change vs veh, FAM179B / RFU, BCL10 / Fold change vs veh, BCL10 / RFU, UHRF1BP1L / Fold change vs veh, UHRF1BP1L / RFU, BET1 / Fold change vs veh, BET1 / RFU, CNOT2 / Fold change vs veh, CNOT2 / RFU, ZNF268 / Fold change vs veh, ZNF268 / Fold change vs veh, ZNF507 / RFU, DGCR2 / Fold change vs veh, DGCR2 / RFU, WDSUB1 / Fold change vs veh, WDSUB1 / Fold change vs veh, HSP90B1 /// MIR3652 / RFU, ADSS / Fold change vs veh, ADSS / RFU, GK / Fold change vs veh, GK / RFU, ZNF148 / Fold change vs veh, ZNF148 / RFU, TAF9 / Fold change vs veh, TAF9 / RFU, SLC1A5 / Fold change vs veh, SLC1A5 / RFU, SLMO2 / Fold change vs veh, SLMO2 / RFU, ABCC4 / Fold change vs veh, ABCC4 / RFU, LOC101060439 /// RAP1B / Fold change vs veh, LOC101060439 /// RAP1B / RFU, RFX7 / Fold change vs veh, RFX7 / RFU, GTPBP10 / Fold change vs veh, GTPBP10 / RFU, CNEP1R1 / Fold change vs veh, CNEP1R1 / RFU, BIVM-ERCC5 /// ERCC5 / Fold change vs veh, BIVM-ERCC5 /// ERCC5 / RFU, ILF3 / Fold change vs veh, ILF3 / RFU 11762660_at / Fold change /veh 11762660_at / RFU VCAN (11757783_s_at) / Fold change /veh VCAN (11757783_s_at) / RFU DDX43 (11728927_at) / Fold change /veh DDX43 (11728927_at) / RFU KRT8 (11758188_x_at) / Fold change /veh KRT8 (11758188_x_at) / RFU NKD1 (11759106_at) / Fold change /veh NKD1 (11759106_at) / RFU SRD5A1 (11742802_a_at) / Fold change /veh SRD5A1 (11742802_a_at) / RFU TPSAB1 /// TPSB2 (11721975_s_at) / Fold change /veh TPSAB1 /// TPSB2 (11721975_s_at) / RFU GSTM3 (11746129_a_at) / Fold change /veh GSTM3 (11746129_a_at) / RFU IL23R (11737362_x_at) / Fold change /veh IL23R (11737362_x_at) / RFU TMEM51 (11727254_a_at) / Fold change /veh TMEM51 (11727254_a_at) / RFU PIWIL2 (11732686_x_at) / Fold change /veh PIWIL2 (11732686_x_at) / RFU ORM1 (11744905_x_at) / Fold change /veh ORM1 (11744905_x_at) / RFU CCDC152 (11743942_at) / Fold change /veh CCDC152 (11743942_at) / RFU ECM1 (11717891_a_at) / Fold change /veh ECM1 (11717891_a_at) / RFU IL23R (11748794_a_at) / Fold change /veh IL23R (11748794_a_at) / RFU TNFAIP8L3 (11732012_x_at) / Fold change /veh TNFAIP8L3 (11732012_x_at) / RFU MBOAT4 (11741988_at) / Fold change /veh MBOAT4 (11741988_at) / RFU 11764193_at / Fold change /veh 11764193_at / RFU TMEM53 (11763286_at) / Fold change /veh TMEM53 (11763286_at) / RFU MAGEB2 (11727129_at) / Fold change /veh MAGEB2 (11727129_at) / RFU TMEM200A (11744735_a_at) / Fold change /veh TMEM200A (11744735_a_at) / RFU CCDC152 (11751479_a_at) / Fold change /veh CCDC152 (11751479_a_at) / RFU FAM211A (11726209_a_at) / Fold change /veh FAM211A (11726209_a_at) / RFU RGS16 (11746705_a_at) / Fold change /veh RGS16 (11746705_a_at) / RFU VCAN (11755009_s_at) / Fold change /veh VCAN (11755009_s_at) / RFU RHOB (11743442_s_at) / Fold change /veh RHOB (11743442_s_at) / RFU RGS16 (11720943_a_at) / Fold change /veh RGS16 (11720943_a_at) / RFU RGS16 (11720944_at) / Fold change /veh RGS16 (11720944_at) / RFU, VPS4B / Fold change vs veh, VPS4B / RFU, CREB1 / Fold change vs veh, CREB1 / RFU, DNAJC13 / Fold change vs veh, DNAJC13 / RFU, GNAQ / Fold change vs veh, GNAQ / RFU, CDK5R1 / Fold change vs veh, CDK5R1 / RFU, ZRANB3 / Fold change vs veh, ZRANB3 / RFU, CUL4A / Fold change vs veh, CUL4A / RFU, CCNY / Fold change vs veh, CCNY / RFU, UFL1 / Fold change vs veh, UFL1 / RFU, COG3 / Fold change vs veh, COG3 / RFU, DIAPH2 / Fold change vs veh, DIAPH2 / RFU, SKA2 / Fold change vs veh, SKA2 / RFU, AFF3 / Fold change vs veh, AFF3 / RFU, LMF1 / Fold change vs veh, LMF1 / RFU, IPO11 / Fold change vs veh, IPO11 / RFU, DFFB / Fold change vs veh, DFFB / RFU, FOXP1 / Fold change vs veh, FOXP1 / RFU, CARD8 / Fold change vs veh, CARD8 / RFU, STRN3 / Fold change vs veh, STRN3 / RFU, ADK / Fold change vs veh, ADK / RFU, RASSF2 / Fold change vs veh, RASSF2 / RFU, WIPF1 / Fold change vs veh, WIPF1 / RFU, LARP1B / Fold change vs veh, LARP1B / RFU, RASA1 / Fold change vs veh, RASA1 / RFU, RB1 / Fold change vs veh, RB1 / RFU, PPFIA1 / Fold change vs veh, PPFIA1 / RFU, MAT2A / Fold change vs veh, MAT2A / RFU, CCT5 / Fold change vs veh, CCT5 / RFU, WDR92 / Fold change vs veh, WDR92 / RFU, CUX1 / Fold change vs veh, CUX1 / RFU, TTC7A / Fold change vs veh, TTC7A / RFU, TMEM135 / Fold change vs veh, TMEM135 / RFU, DEPTOR / Fold change vs veh, DEPTOR / RFU, CPM / Fold change vs veh, CPM / RFU, DNAJB6 / Fold change vs veh, DNAJB6 / RFU, CACNA2D3 / Fold change vs veh, CACNA2D3 / RFU, DTX4 / Fold change vs veh, DTX4 / RFU, TFCP2 / Fold change vs veh, TFCP2 / RFU, GMCL1 /// GMCL1P1 / Fold change vs veh, GMCL1 /// GMCL1P1 / RFU, AEBP2 / Fold change vs veh, AEBP2 / RFU, SNHG1 /// SNORD22 /// SNORD25 /// SNORD26 /// SNORD27 /// SNORD28 /// SNORD29 /// SNORD31 / Fold change vs veh, SNHG1 /// SNORD22 /// SNORD25 /// SNORD26 /// SNORD27 /// SNORD28 /// SNORD29 /// SNORD31 / Fold change (Aza/veh), C12orf56 (ProbeSet 11735607_a_at) / Fold change (ACY-1035/veh), C12orf56 (ProbeSet 11735607_a_at) / Fold change (Aza/veh), FGFR1OP (ProbeSet 11751329_s_at) / Fold change (ACY-1035/veh), FGFR1OP (ProbeSet 11751329_s_at) / Fold change (Aza/veh), VPS36 (ProbeSet 11739960_a_at) / Fold change (ACY-1035/veh), VPS36 (ProbeSet 11739960_a_at) / RFU SYPL1 (11715823_x_at) / Fold change /veh SYPL1 (11715823_x_at) / RFU IGFBP7 (11715501_s_at) / Fold change /veh IGFBP7 (11715501_s_at) / RFU REEP3 (11722064_at) / Fold change /veh REEP3 (11722064_at) / RFU IGLL1 (11728026_x_at) / Fold change /veh IGLL1 (11728026_x_at): dose or concentration left out as unconfirmed
Details: MV-4-11 cells, 48 hours

SMILES: Nc1ccc(-c2cccs2)cc1NC(=O)c1ccc2c(c1)cc(C1CC1)n2CCN1CCOCC1 [ACY-1035]
- Fold change /veh ISYNA1 (11749810_s_at): 0.96
